The text below walks through data of ChEMBL document CHEMBL1136587, “Optimisation of aryl substitution leading to potent methionyl tRNA synthetase inhibitors with excellent gram-positive antibacterial activity” (Bioorg Med Chem Lett, 2003).

Values after ≈ are worked out from the molar mass of the structure shown.

In assay [1] the target is Methionine--tRNA ligase (Enterococcus faecalis (strain ATCC 700802 / V583)) (UniProt Q837B3). Description: In vitro Antibacterial activity of compound against Enterococcus faecalis 7. Format: functional.
Methionine--tRNA ligase (Enterococcus faecalis (strain ATCC 700802 / V583)), sequence (Q837B3 whole entry): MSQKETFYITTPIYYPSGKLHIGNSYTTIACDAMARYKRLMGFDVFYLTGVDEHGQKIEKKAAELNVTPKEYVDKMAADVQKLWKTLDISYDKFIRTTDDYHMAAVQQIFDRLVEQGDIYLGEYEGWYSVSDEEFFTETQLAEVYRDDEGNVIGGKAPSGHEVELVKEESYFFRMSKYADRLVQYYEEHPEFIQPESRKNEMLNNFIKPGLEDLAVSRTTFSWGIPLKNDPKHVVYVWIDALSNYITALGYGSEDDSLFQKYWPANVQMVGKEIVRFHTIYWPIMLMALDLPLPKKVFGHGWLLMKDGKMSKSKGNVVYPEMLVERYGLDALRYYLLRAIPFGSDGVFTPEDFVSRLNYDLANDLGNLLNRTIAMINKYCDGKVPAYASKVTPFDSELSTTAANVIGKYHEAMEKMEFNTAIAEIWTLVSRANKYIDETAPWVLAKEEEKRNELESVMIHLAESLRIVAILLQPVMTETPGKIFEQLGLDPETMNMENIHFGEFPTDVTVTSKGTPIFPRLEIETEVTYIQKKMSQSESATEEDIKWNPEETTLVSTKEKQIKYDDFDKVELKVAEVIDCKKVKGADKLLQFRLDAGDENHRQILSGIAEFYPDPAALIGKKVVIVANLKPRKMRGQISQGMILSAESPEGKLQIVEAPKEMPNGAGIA
For assay [2], the system named is Staphylococcus aureus. Briefly: In vitro Antibacterial activity of compound against Staphylococcus aureus Oxford. The assay is classed as functional.

Regarding `CC(C)Oc1c(Cl)cc(Cl)cc1CNCCCNc1cc(O)c2ccccc2n1`, the MIC in assay [1] came out at 0.5 µg/mL (≈ 1.15 µM); in assay [2] it was 2 µg/mL (≈ 4.6 µM).
Regarding `Oc1cc(NCCCNCc2cc(Cl)cc(Cl)c2Cl)nc2ccccc12`, the figures for the MIC in assay [1] and in assay [2] were less than 0.06 µg/mL and 0.25 µg/mL (≈ 0.609 µM), respectively.
The corresponding values for `Oc1cc(NCCCNCc2cccc(Cl)c2Cl)nc2ccccc12` are 2 µg/mL (≈ 5.32 µM) and 8 µg/mL (≈ 21.3 µM).
